This is an account of results in patent publication US20240327384A1, “SALTS AND SOLID STATE FORMS OF A KIF18A INHIBITOR COMPOUND” (Amgen Inc., priority 2021, published 2024).

The nature of data set [1]: Intrinsic dissolution rate (IDR) test. Type of data set: physicochemical.
The nature of a further data set: Dog cross-over PK study. Type of data set: in vivo. How it is done:
A total of 3 male dogs were initially assigned to study. All animals were fasted for at least eight hours prior to dosing and through the first four hours of blood sample collection (food was returned within 30 minutes following the collection of the last blood sample at the 4 hour collection interval, if applicable).
Each animal receiver an oral gavage dose (PO) of the appropriate test article solution containing Compound A as outlined in the following study design table. Oral gavage dosing solutions were continuously stirred throughout dosing. The gavage tubes were rinsed with approximately 10 mL of tap water following dosing (prior to removal of the gavage tube). There was a minimum of 10-day washout period between doses for each phase.

A short description of data set [2]: Dynamic vapor sorption (moisture sorption, hygroscopicity). The class given is physicochemical. The note with it: for DVS weight gain: by 95% RH. As to the method: Moisture sorption data was collected using a VTI SGA 100 symmetrical vapor sorption analyzer. A sample size of approximately 5 mg to 10 mg was used in a platinum pan. Hygroscopicity was evaluated from 5% RH to 95% RH in increments of 5% RH. Data for adsorption and desorption cycles were collected. […] Dynamic Vapor Sorption (DVS): Moisture sorption data was collected using a Surface Measurement Systems […] instrument. Equilibrium criteria were set at ±0.001% weight change in 10 minutes with a maximum equilibrium time of 360 minutes.

The nature of data set [3]: Solubility and powder dissolution in FaSSGF, FaSSIF, FeSSIF, water (Example 44). The class given is physicochemical. The following applies: for Sol (pH), Water (first value pair after FeSSIF): pH 1.14 (HCl Form 1), pH 1.08 (Variable Hydrate Form 2); for Sol (pH), Water (first value pair after FeSSIF) / Sol (pH), Water (second value pair after FeSSIF): head of medium unclear; for Sol (pH), Water (second value pair after FeSSIF): pH 1.58 (HCl Form 1), pH 1.64 (Variable Hydrate Form 2). How it is done: Solubilities of various forms of the Compound A and the Compound A-HCl Form 1 were measured in Fasted State Simulated Gastric Fluid (FaSSGF), Fasted State Simulated Intestinal Fluid (FaSSIF), fed state simulated intestinal fluid […], and water.

A further data set deals with T1, KIF18A (Homo sapiens, UniProt Q8NI77).
T1 sequence (Q8NI77 1-898): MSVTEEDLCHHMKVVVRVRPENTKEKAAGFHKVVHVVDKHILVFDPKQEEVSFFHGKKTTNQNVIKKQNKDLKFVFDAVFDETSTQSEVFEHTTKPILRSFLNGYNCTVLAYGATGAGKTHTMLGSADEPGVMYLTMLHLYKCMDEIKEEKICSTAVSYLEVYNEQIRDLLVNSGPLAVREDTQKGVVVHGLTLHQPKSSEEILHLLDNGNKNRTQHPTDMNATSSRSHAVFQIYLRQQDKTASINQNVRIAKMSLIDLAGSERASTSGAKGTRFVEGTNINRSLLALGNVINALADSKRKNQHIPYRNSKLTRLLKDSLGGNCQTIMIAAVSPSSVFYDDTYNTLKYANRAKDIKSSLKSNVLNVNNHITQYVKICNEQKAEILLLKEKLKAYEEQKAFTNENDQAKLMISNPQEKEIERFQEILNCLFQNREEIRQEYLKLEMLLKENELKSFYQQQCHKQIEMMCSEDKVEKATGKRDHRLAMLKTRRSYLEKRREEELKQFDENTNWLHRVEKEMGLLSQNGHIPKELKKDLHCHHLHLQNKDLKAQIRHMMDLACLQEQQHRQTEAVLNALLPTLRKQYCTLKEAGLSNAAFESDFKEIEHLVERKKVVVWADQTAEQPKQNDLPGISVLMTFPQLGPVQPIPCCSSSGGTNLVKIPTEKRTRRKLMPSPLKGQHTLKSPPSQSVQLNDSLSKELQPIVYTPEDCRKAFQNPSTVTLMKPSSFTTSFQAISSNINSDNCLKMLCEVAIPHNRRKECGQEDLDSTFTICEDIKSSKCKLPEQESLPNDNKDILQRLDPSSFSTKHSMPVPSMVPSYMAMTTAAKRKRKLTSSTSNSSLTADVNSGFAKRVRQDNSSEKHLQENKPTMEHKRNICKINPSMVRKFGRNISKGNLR
The data set is described as follows: KIF18A ATPase inhibition. Type of data set: biochemical.

Another data set can be described thus: pKa of ionizable groups. The class given is physicochemical. From the text: From high-throughput and manual polymorph screening, the present inventors generated various salts, hydrates, solvates, co-crystals of compound A; and a solid form of the Compound A, including crystalline anhydrous forms, salts, hydrates, solvates, and co-crystals thereof. […] Based on the solid-state properties of the free base forms of Compound A, and their inclinations to form solvates, the present inventors generated various salts, hydrates, solvates, and co-crystals of compound A that may be suitable for drug substance scale up and crystallization for pharmaceutical development.

Data set [4] is described as follows: Solubility in crystallization solvent 80/20 acetone/water. The class given is physicochemical. The note with it: organic solvent or mixture; 80/20 (v/v) acetone/water, crystallization and slurry aging solvent. How it is done:
The process was unseeded and crystal growth occurs during the addition of hydrochloric acid to the Compound A solution. The final slurry was aged at ambient temperature for 10 h, then cooled to 10° C. prior to wet milling. Isolation of the milled material occurred at 10° C. followed by washing of the filter cake with 8 volumes of acetone. The material was dried at 40° C. under vacuum.

The nature of data set [5]: Solubility and powder dissolution of salts in FaSSIF (Example 46). The class given is physicochemical. The source says: All three salts can convert to the free base, but maintain supersaturation in FaSSIF for some time, which indicated a potential good absorption in vivo if used in a pharmaceutical dosage form.
Data set [6] can be described thus: Polymorph/salt screening: solid form stability, conversion and solubility. Type of data set: physicochemical.
Setting [7] is: male dogs, fasted, PO 10 mg/kg, cross-over, listed as Amorphous Cmp A, 10 mg/kg.
The mark [8] stands for this setting: male dogs, fasted, PO 10 mg/kg, cross-over, listed as Cmp A-Anhydrous Form 3, 10 mg/kg.
[9] abbreviates: male, dog, plasma, po, 10 mg/kg, male dogs, fasted, cross-over, read-out: Tmax.
Setting [10] is: pH 1.6, solubility from powder dissolution measurements.
Where [11] appears, read: pH 6.5, solubility from powder dissolution measurements.
Where [12] appears, read: pH 5.0, solubility from powder dissolution measurements.
Where [13] appears, read: male, dog, plasma, po, 10 mg/kg, male dogs, fasted, cross-over.

Values after ≈ are worked out from the molar mass of the structure shown. Like-named read-outs stand apart in the source and are kept apart here. Marks after values point to notes of the source that are not given here.

In the case of `Cc1cc(NC(=O)c2ccc(NS(=O)(=O)CCO)cc2N2CCC3(CC2)CC3)nc(N2CCC(F)(F)CC2)n1` [Amorphous Compound A], in data set [1] (listed as Amorphous Cmp A), the IDR is listed as 36.2 ug/min*cm^2. In “Dog cross-over PK study” (setting [7]), the AUCt stood at 237 ± 68 µM·h; the Cmax (in general, the highest concentration seen after dosing) came to 6.9 ± 1.3 µM; the Tmax (in general, the time from dosing to the highest level) is 6.7 ± 2.3 h.

On to `Cc1cc(NC(=O)c2ccc(NS(=O)(=O)CCO)cc2N2CCC3(CC2)CC3)nc(N2CCC(F)(F)CC2)n1` [Anhydrous Compound A Form 3], for which the DVS weight gain result in [2] is “about 1.5%”. Besides, in [3] (pH 1.6 (end of experiment), solubility from 2 hr time point), the “Sol (pH), FaSSGF” value was 99.3 μg/mL. The “Sol (pH), FaSSIF” value in data set [3] (pH 6.5 (end of experiment), solubility from 2 hr time point) is listed as 87 μg/mL. Also, the “Sol (pH), FeSSIF” value in data set [3] (pH 5.0 (end of experiment), solubility from 2 hr time point) was 352 (5.0)* μg/mL. Besides, in [3] (Water, pH 8.0 (end of experiment), solubility from 2 hr time point), the “Sol (pH), Water” value is 5.4 (8.0)* μg/mL. In “Dog cross-over PK study” (setting [8]), this compound gave an AUCt of 69 ± 6 µM·h and a Cmax of 2.3 ± 0.2 µM. Moreover, the Tmax in the data set “Dog cross-over PK study” (setting [9]) is 4.7 ± 1.2 h.

Turning to `Cc1cc(NC(=O)c2ccc(NS(=O)(=O)CCO)cc2N2CCC3(CC2)CC3)nc(N2CCC(F)(F)CC2)n1` [Anhydrous Compound A Form 5], the “DVS observation in words” value in data set [2] was “rehydrated to the Compound A-Variable Hydrate Form 2”.

Turning to `Cc1cc(NC(=O)c2ccc(NS(=O)(=O)CCO)cc2N2CCC3(CC2)CC3)nc(N2CCC(F)(F)CC2)n1` [Compound A, 2-(6-azaspiro[2.5]octan-6-yl)-N-[2-(4,4-difluoropiperidin-1-yl)-6-methylpyrimidin-4-yl]-4-[(2-hydroxyethanesulfonyl)amino]benzamide], the “ATPase activity inhibited (MT-ATPase vs basal ATPase)” value on KIF18A was “inhibits MT-ATPase activity and not basal ATPase activity”. Further, the results for the pKa in “pKa of ionizable groups” (read-out: weakly acidic pKa) and in the data set “pKa of ionizable groups” (read-out: weakly basic pKa) were 7.3 and 3.9, respectively. Further, the solubility (commonly how much of the substance goes into solution per volume) in data set [4] was roughly 18 mg/mL (≈ 31.9 mM).

For `Cc1cc(NC(=O)c2ccc(NS(=O)(=O)CCO)cc2N2CCC3(CC2)CC3)nc(N2CCC(F)(F)CC2)n1.Cl` [Compound A-HCl Form 1], the solubility in data set [4] is roughly 8 mg/mL. Moreover, the DVS weight gain entry in data set [2] is “less than 0.5%”. Besides, in data set [3], the “powder dissolution compared with other forms, in words” value was “faster dissolution than the Compound A-Variable-Hydrate Form 2, or Compound A-Anhydrous Form 3, but a slower dissolution than the Amorphous Compound A”; the “Sol (pH), Water (first value pair after FeSSIF)” value turned out to be 7.9 μg/mL; the “Sol (pH), Water (second value pair after FeSSIF)” value was 13 μg/mL. Also, in [3] (setting [10]), the “Sol (pH), FaSSGF” value is recorded as 6.3 ± 0.5 μg/mL. Also, the “Sol (pH), FaSSIF” value in data set [3] (setting [11]) was found to be 62.7 ± 9.0 μg/mL. Moreover, the “Sol (pH), FeSSIF” value in data set [3] (setting [12]) was 437.1 ± 16.3 (5.0)^ μg/mL. In addition, the IDR in data set [1] came out at 2.14 ug/min*cm^2. Besides, in “Dog cross-over PK study” (dog, PO 10 mg/kg), the “exposure compared to Amorphous Compound A, in words” value is listed as “lower exposure than the Amorphous Compound A form” and the “increase in exposure compared to Compound A-Anhydrous Form 3” value was roughly 2 fold. Further, in “Dog cross-over PK study” (setting [13]), the AUC(0-t) (in general, exposure summed from dosing to a finite time, without extrapolation to infinity) is 181 ± 79 µM·h and the Cmax turned out to be 4.7 ± 1.4 µM. In addition, in “Dog cross-over PK study” (setting [9]), the Tmax was determined as 6 h. For the same compound, in data set [5] (pH 6.5), the “Sol (pH), FaSSIF” value is on record as 104.2 (6.5) μg/mL.

With `Cc1cc(NC(=O)c2ccc(NS(=O)(=O)CCO)cc2N2CCC3(CC2)CC3)nc(N2CCC(F)(F)CC2)n1` [Compound A-MsA Form 1], the DVS weight gain result is “about 1.2%” in data set [2] (listed as Crystalline Compound A-MsA Form 1) and “less than 1.2%” in [2] (listed as crystalline Compound A-MsA Salt Form 1). The “kinetic solubility, dissolution rate and supersaturation in FaSSIF, in words” value in data set [5] (listed as Mesylate (A-MsA or A-MSA) Salt Form 1) is listed as “better than the HCl Salt Form 1”. For the same compound, in data set [5] (pH 6.5, listed as Cmp A-MSA Form 1), the “Sol (pH), FaSSIF” value is on record as 133.0 (6.5) μg/mL.

Take `Cc1cc(NC(=O)c2ccc(NS(=O)(=O)CCO)cc2N2CCC3(CC2)CC3)nc(N2CCC(F)(F)CC2)n1` [Compound A-Sulfate Form 1]: the “DVS observation in words” value in data set [2] (listed as Crystalline Compound A-Sulfate Form 1) is reported as “deliquesces at 90% RH”.

In the case of `Cc1cc(NC(=O)c2ccc(NS(=O)(=O)CCO)cc2N2CCC3(CC2)CC3)nc(N2CCC(F)(F)CC2)n1` [Compound A-TsA Form 4], the “kinetic solubility, dissolution rate and supersaturation in FaSSIF, in words” value in data set [5] (listed as Tosylate (A-TsA or A-TSA) Salt Form 4) is given as “better than the Mesylate (A-MsA or A-MSA) Salt Form 1”. Besides, the “Sol (pH), FaSSIF” value in data set [5] (pH 6.5, listed as Cmp A-TSA Form 4) is on record as 160.6 (6.5) μg/mL.

Turning to `Cc1cc(NC(=O)c2ccc(NS(=O)(=O)CCO)cc2N2CCC3(CC2)CC3)nc(N2CCC(F)(F)CC2)n1` [Compound A-Variable Hydrate Form 2], the DVS weight gain result in data set [2] is listed as “about 3.4%”. Also, in [3] (setting [10]), the “Sol (pH), FaSSGF” value is given as 20 μg/mL. The “Sol (pH), FaSSIF” value in data set [3] (setting [11]) was determined as 10.6 μg/mL. Also, in data set [3] (setting [12]), the “Sol (pH), FeSSIF” value is given as 144.5(5.0)^ μg/mL. Also, in data set [3], the “Sol (pH), Water (first value pair after FeSSIF)” value was found to be 243 μg/mL and the “Sol (pH), Water (second value pair after FeSSIF)” value was determined as 23 μg/mL. The compound also came in with an IDR in data set [1] (listed as Cmp A-Variable Hydrate Form 2) of 0.42 ug/min*cm^2. Moreover, in [6], the “solubility, in words” value was “very low solubility”.
